Measured values published in ChEMBL document CHEMBL5214906, “Novel Antiplasmodial Compounds Leveraged with Multistage Potency against the Parasite Plasmodium falciparum: In Vitro and In Vivo Evaluations and Pharmacokinetic Studies” (J Med Chem, 2021).
Activity calls are given as the source filed them. The calls are words filed in the database; no cut-off is given here.

Key:
[1] = Toxicity in C57BL/6 mouse assessed as effect on globulin level at 400 mg/kg, ip measured upto 24 hrs (reference value: 4.19 gm/dl); format: organism-based; conditions: in vivo
[2] = Toxicity in C57BL/6 mouse assessed as effect on motor activity at 100 to 400 mg/kg, ip measured upto 24 hrs; format: organism-based; conditions: in vivo, dose 100-400 mg/kg
[3] = test system: Plasmodium falciparum; test: Antiplasmodial activity against artemisinin partially resistant Plasmodium falciparum harbouring C580Y mutant assessed as inhibition of parasitemia; format: functional, organism-based, Red blood cell; conditions: Erythrocyte
[4] = Toxicity in C57BL/6 mouse assessed as effect on indirect bilirubin level at 400 mg/kg, ip measured upto 24 hrs (reference value: 0.22 mg/dl); format: organism-based; conditions: in vivo
[5] = test system: Plasmodium berghei; test: In vivo antimalarial activity against Plasmodium berghei ANKA strain infected in C57BL/6 mouse assessed as increase in mean survival time at 50 mg/kg, ip administered for 4 days and measured upto 30 days (reference value: 13 days); format: functional; conditions: time <= 30 day
[6] = Toxicity in C57BL/6 mouse assessed as effect on urea level at 400 mg/kg, ip measured upto 24 hrs (reference value: 44.50 mg/dl); format: organism-based; conditions: in vivo
[7] = Toxicity in C57BL/6 mouse assessed as effect on direct bilirubin level at 400 mg/kg, ip measured upto 24 hrs (reference value: 0.17 mg/dl); format: organism-based; conditions: in vivo
[8] = Therapeutic index, ratio of TC50 for cytotoxicity against human HepG2 cells to IC50 for antiplasmodial activity against Plasmodium falciparum 3D7 infected in human red blood cells; format: toxicity, cell-based; conditions: read-out: TI
[9] = test system: Plasmodium berghei; test: Antiplasmodial activity against firefly luciferase-expressing Plasmodium berghei liver stage infected in human Huh-7 cells assessed as inhibition of parasite growth preincubated with cells for 1 hrs followed by parasite infection and […] by bioluminescence assay; format: functional, organism-based
[10] = test system: Plasmodium falciparum; test: Antiplasmodial activity against Plasmodium falciparum 3D7 infected in human red blood cells assessed as inhibition of parasitemia incubated for 48 hrs by giemsa staining based light microscopic analysis; format: functional, organism-based, Red blood cell; conditions: 3D7, Erythrocyte
[11] = test system: Plasmodium berghei; test: In vivo antimalarial activity against GFP-expressing Plasmodium berghei infected in C57BL/6 mouse assessed as inhibition of parasite growth in thick blood smear at 50 mg/kg, ip administered for 4 days and measured upto 8 days post-infection by microscopic analysis; format: functional, organism-based; conditions: time <= 8.0 day
[12] = Toxicity in C57BL/6 mouse assessed as effect on serum creatinine level at 400 mg/kg, ip measured upto 24 hrs (reference value: 0.47 mg/dl); format: organism-based; conditions: in vivo
[13] = test system: Plasmodium berghei; test: In vivo antimalarial activity against Plasmodium berghei ANKA infected in C57BL/6 mouse assessed as reduction in parasitemia at 50 mg/kg, ip administered for 4 days and measured at day 8 post-infection in the presence of artesunate by giemsa staining based microscopic analysis relative to control; format: functional; design: scale not given: the % may be the effect or the level left; conditions: time 8 day
[14] = test system: Erythrocyte; test: Hemolytic activity against human red blood cells upto 1600 uM incubated for 1 hrs by hemolysis assay; format: toxicity, cell-based
[15] = test system: Plasmodium berghei; test: Antimalarial activity against Plasmodium berghei assessed as reduction in oocyte burden in Anopheles stephensi mosquito midgut fed with blood isolated from compound treated parasite-infected Balb/c mouse at 200 mg/kg administered on day 1 and day 9 relative to control; format: functional; design: scale not given: the % may be the effect or the level left; conditions: time 9 day
[16] = Toxicity in C57BL/6 mouse assessed as effect on total bilirubin level at 400 mg/kg, ip measured upto 24 hrs (reference value: 0.39 mg/dl); format: organism-based; conditions: in vivo
[17] = Toxicity in C57BL/6 mouse assessed as effect on feeding at 100 to 400 mg/kg, ip measured upto 24 hrs; format: organism-based; conditions: in vivo, dose 100-400 mg/kg
[18] = Drug recovery in C57BL/6 mouse plasma at 0.1 mg/ml; format: ADME, cell-free
[19] = test system: Plasmodium berghei; test: Antiplasmodial activity against Plasmodium berghei isolated from parasite-infected mouse blood assessed as reduction in number of healthy parasites in compound treated ookinete medium co-cultured with mouse blood at 0.05 to 0.45 uM by giemsa staining based analysis; format: functional, organism-based; conditions: dose 0.05-0.45 µM
[20] = Toxicity in C57BL/6 mouse assessed as effect on alkaline phosphatase level in serum at 400 mg/kg, ip measured upto 24 hrs (reference value: 108.3 U/L); format: organism-based; conditions: in vivo
[21] = Toxicity in C57BL/6 mouse assessed as effect on kidney structure at 400 mg/kg, ip measured upto 24 hrs by H&E staining based histopathological analysis; format: organism-based; conditions: in vivo
[22] = Toxicity in C57BL/6 mouse assessed as effect on SGPT level in serum at 400 mg/kg, ip measured upto 24 hrs (reference value: 37.59 U/L); format: organism-based; conditions: in vivo
[23] = Toxicity in C57BL/6 mouse assessed as effect on serum calcium level at 400 mg/kg, ip measured upto 24 hrs (reference value: 8.89 mg/dl); format: organism-based; conditions: in vivo
[24] = Toxicity in C57BL/6 mouse assessed as effect on serum uric acid level at 400 mg/kg, ip measured upto 24 hrs (reference value: 2.58 mg/dl); format: organism-based; conditions: in vivo
[25] = test system: Plasmodium berghei; test: Antimalarial activity against Plasmodium berghei assessed as reduction in Plasmodium berghei oocyte formation in Anopheles stephensi mosquito midgut fed with blood isolated from compound treated parasite-infected Balb/c mouse at 200 mg/kg administered on day 1 and day 9; format: functional, organism-based; conditions: time 9.0 day
[26] = Toxicity in C57BL/6 mouse assessed as effect on body weight at 100 to 400 mg/kg, ip measured upto 24 hrs; format: organism-based; conditions: in vivo, dose 100-400 mg/kg
[27] = test system: Plasmodium berghei; test: In vivo antimalarial activity against Plasmodium berghei ANKA infected in C57BL/6 mouse assessed as reduction in parasitemia at 50 mg/kg, ip administered for 4 consecutive days and measured on day 8 post-infection by giemsa staining based microscopic analysis relative to control; format: functional; design: scale not given: the % may be the effect or the level left; conditions: time 8 day
[28] = Toxicity in C57BL/6 mouse assessed as effect on SGOT level in serum at 400 mg/kg, ip measured upto 24 hrs (reference value: 147.2 U/L); format: organism-based; conditions: in vivo
[29] = test system: Plasmodium berghei; test: In vivo antimalarial activity against Plasmodium berghei ANKA strain infected in C57BL/6 mouse assessed as increase in mean survival time at 50 mg/kg, ip administered for 4 days and measured upto 30 days in the presence of artesunate (reference value: 13 days); format: functional; conditions: time <= 30 day
[30] = test system: Plasmodium falciparum; test: Inhibition of Plasmodium falciparum plasmepsin X […] at 1 uM using DABCYL-G-PSFVEAPVRGG-EDANS as substrate by fluorescence based assay relative to control
[31] = Toxicity in C57BL/6 mouse assessed as effect on albumin level at 400 mg/kg, ip measured upto 24 hrs (reference value: 2.10 gm/dl); format: organism-based; conditions: in vivo
[32] = Toxicity in C57BL/6 mouse assessed as effect on liver structure at 400 mg/kg, ip measured upto 24 hrs by H&E staining based histopathological analysis; format: organism-based; conditions: in vivo
[33] = test system: Plasmodium falciparum; test: Resistance index, ratio of IC50 for antiplasmodial activity against artemisinin partially resistant Plasmodium falciparum harbouring C580Y mutant to IC50 for antiplasmodial activity against Plasmodium falciparum 3D7; format: functional
[34] = Toxicity in C57BL/6 mouse assessed as effect on total protein level at 400 mg/kg, ip measured upto 24 hrs (reference value: 6.29 gm/dl); format: organism-based; conditions: in vivo
[35] = Cytotoxicity against human HepG2 cells assessed as reduction in cell viability incubated for 48 hrs by MTT assay; format: toxicity, cell-based; conditions: read-out: TC50
[36] = test system: Plasmodium berghei; test: Antimalarial activity against Plasmodium berghei infected in Balb/c mouse assessed as parasite killing at 200 mg/kg administered on day 1 and day 9 relative to control; format: functional; conditions: time 9 day
[37] = Toxicity in C57BL/6 mouse assessed as effect on serum LDH level at 400 mg/kg, ip measured upto 24 hrs; format: organism-based; conditions: in vivo
[38] = test system: Plasmodium berghei; test: In vivo antimalarial activity against GFP-expressing Plasmodium berghei infected in C57BL/6 mouse assessed as inhibition of parasite growth in thin blood smear at 50 mg/kg, ip administered for 4 days and measured upto 8 days post-infection by giemsa staining based microscopic analysis; format: functional, organism-based; conditions: time <= 8.0 day

O=C(N[C@@H](Cc1ccccc1)[C@@H](O)CN1CCN(Cc2ccccc2)CC1)c1ccc2ccccc2c1
Activity [1]: 4.14 g/dL
Activity [2]: Non-Toxic
IC50 [3]: 110 nM
Activity [4]: 0.17 mg/dL
MST [5]: 17 days
Activity [6]: 49.03 mg/dL
Activity [7]: 0.11 mg/dL
selectivity ratio [8]: 1560
IC50 [9]: 1560 nM
IC50 [10]: 150 nM
Activity [11]: Active
Activity [12]: 0.77 mg/dL
Activity [13]: 99%
Activity [14]: Non-Toxic
Activity [15]: 80%
Activity [16]: 0.28 mg/dL
Activity [17]: Non-Toxic
Drug recovery [18]: > 87.3%
Activity [19]: Active
Activity [20]: 41.9 U/L
Activity [21]: Non-Toxic
Activity [22]: 22.45 U/L
Activity [23]: 9.24 mg/dL
Activity [24]: 2.49 mg/dL
Activity [25]: Active
Activity [26]: Non-Toxic
Activity [27]: 75%
Activity [28]: 123.1 U/L
MST [29]: 27 days
inhibition [30]: 17.7%
Activity [31]: 2.68 g/dL
Activity [32]: Non-Toxic
Ratio IC50 [33]: 0.72
Activity [34]: 6.82 g/dL
CC50 at 48 h [35]: 234000 nM
Activity [36]: 100%
Activity [37]: Non-Toxic
Activity [38]: Active
